Our source for the IC50 values is PubChem BioAssay AID624395 (The Scripps Research Institute Molecular Screening Center, 2012).

Activity calls are given as the source filed them. How the calls were made is not given here. Bounds are passed on as bounds.

This experiment deals with cell-based VP16 transactivation luciferase luminescence. The experiment is described as follows: compounds lowering VP16-driven reporter luminescence – cell-based, counter-screen for NR2E3 agonist project, dose response (AID 624395). Background: Counterscreens check selectivity or assay interference.
A word on the IC50: it is the concentration at which inhibition is half-maximal. Regarding `O=[N+]([O-])c1ccc(O)c2ncccc12`, the IC50 is 6.36 µM.
For the molecule `COc1ccc(NC(=O)c2sc(=O)n(Cc3ccc(F)c(Cl)c3)c2C)cc1OC`, the IC50 was 20.6 µM (inactive).
On to `COc1ccc(NC(=O)/C(Cl)=C(/Cl)S(=O)(=O)Cc2ccccc2)cn1`, for which the IC50 is 5.13 µM.
Consider `O=C(/C=C/c1ccc([N+](=O)[O-])o1)NNC(=O)c1ccc(F)cc1`, for which the IC50 is 24.2 µM (inactive).
For the molecule `O=NN(CC(=O)NNc1ccccc1)CC(=O)NNc1ccccc1`, the IC50 was 23.2 µM (inactive).
Regarding `Cc1c(Cl)ccc2sc(N3CCN(C(=O)C4=COCCO4)CC3)nc12`, the IC50 was 7 µM.
`COc1ccc(CNC(=O)c2cccc3c(-c4ccc(F)c(F)c4)coc23)cc1OC`: the IC50 was 4.54 µM.
Consider `COc1cccc(C(=O)c2sc(NC(C)C)nc2N)c1`, for which the IC50 is 5.16 µM.
In the case of `CC(C)N1CCc2c(sc(NC(=O)c3ccc([N+](=O)[O-])o3)c2C(N)=O)C1`, the IC50 is 3.05 µM.
Consider `Cc1nc2ncnn2c(N2CCN(c3cccc(C(F)(F)F)c3)CC2)c1C`, for which the IC50 is 6.46 µM.
For the molecule `COc1cccc2c1C(=O)c1c(O)c3c(c(O)c1C2=O)CC(O)(C(C)=O)CC3OC1CC(N(C)C)C(O)C(C)O1` (stereo unspecified), the IC50 is 3.21 µM.
With `Cc1cc(C(=O)CSc2nc3ccccc3[nH]2)c(C)n1CC1CCCO1` (stereo unspecified), the IC50 is 7.32 µM.
With `COCCCNC(=S)N1CCN(c2nc(-c3ccc(Cl)cc3)cs2)CC1`, the IC50 is 10.6 µM (inactive).
Take `C=C1C(=O)O[C@@H]2C[C@@H](C)[C@@H]3C=CC(=O)[C@@]3(C)[C@@H](O)[C@H]12`: the IC50 was 4.37 µM.
Turning to `C=CCn1c(C)cc(C(=O)CN2C(=O)c3ccccc3S2(=O)=O)c1C`, the IC50 is 2.31 µM.
With `COc1cc2c(oc(=O)c3cc(C)cc(OC)c32)c2c(C3OC(C)C(O)C(C)(O)C3O)ccc(O)c12` (stereo unspecified), the IC50 is 7.6 µM.
For `CCc1cccc2sc(N3CCN(C(=O)c4ccc([N+](=O)[O-])o4)CC3)nc12`, the IC50 was > 13.3 µM (inactive).
Consider `CCCCCCCCn1c(=O)c(C(=O)OC)c(N)c2ccccc21`, for which the IC50 was 3.64 µM.
For `O=C(CSc1nnnn1-c1ccc2c(c1)OCCO2)Nc1nc2c(s1)CCCC2`, the IC50 is > 39.8 µM (inactive).
As for `O=C(NC(=O)N1CCN(c2cccc(Cl)c2)CC1)c1ccc(Cl)cc1`, the IC50 was 4.17 µM.
With `CN(C)c1ccc(/C=C/c2ccc3ccccc3[n+]2C)cc1`, the IC50 is 13 µM (inactive).
In the case of `Oc1[nH]c2ccc(Br)cc2c1N=NC(=S)N1CCOCC1`, the IC50 is > 13.3 µM (inactive).
In the case of `Cc1ccc(NC(=O)CNC(=O)c2cccc(C)c2)nc1`, the IC50 is 26 µM (inactive).
As to `Cc1ccc(NC(=S)/C(C#N)=C2/Nc3ccccc3S2)cc1`, the 50% inhibitory concentration (IC50) was 2.76 µM.
Turning to `Cc1ccc([C@@H]2CC=C(C(=O)O)[C@H](c3ccc(C(C)(C)C)cc3)N2S(=O)(=O)c2ccc(C)cc2)cc1`, the IC50 was 7.47 µM.
Take `O=c1cc(C(F)(F)F)nc(SC/C=C/c2ccccc2)[nH]1`: the IC50 is 13 µM (inactive).
For `Cc1cnc(NC(=O)CCCc2nc3ccccc3s2)s1`, the IC50 is 5.07 µM.
For the molecule `C=C(C(=O)c1ccccc1)C(NC(C)(C)C)c1ccccc1` (stereo unspecified), the IC50 was 5.27 µM.
As for `CCCc1cc(=O)n2nc(N3CCC(C(=O)N4CCN(c5ccc(OC)cc5)CC4)CC3)sc2n1`, the IC50 was 4.44 µM.
For the molecule `CCCCCCCCCCCCN1[C@@H](CC(=O)O)c2cc(C(F)(F)F)ccc2S1(=O)=O`, the IC50 was 8.1 µM.
For `Cc1ccnc(NC(=S)N2CCN(c3cccc(C(F)(F)F)c3)CC2)c1`, the IC50 was 12.3 µM (inactive).
As to `Cc1ccc(C#N)c(SCc2nnc(-c3ccc(Cl)cc3)o2)n1`, the IC50 was 0.0132 µM.
Turning to `Cc1ccc(S(=O)(=O)N2[C@@H](c3ccc(Cl)c(Cl)c3)C(C(=O)O)=C[C@H]2CC2CCCC2)cc1`, the IC50 was 12 µM (inactive).
For the molecule `CCNc1nc2c(c(=O)n(C)c(=O)n2C)n1Cc1ccc(Cl)cc1`, the IC50 was 6.02 µM.
In the case of `COC(CNC(=O)CSCc1nc(-c2ccc(SC)cc2)oc1C)OC`, the IC50 was 2.61 µM.
To `COc1ccc([C@@H]2C[C@H]3[C@@H](CN2S(=O)(=O)c2ccccc2)C(=O)C[C@@H](c2cccc(Cl)c2)N3S(=O)(=O)c2ccc(C)cc2)cc1` belongs 4.51 µM; to `C=CC[n+]1c(-c2ccc(Cl)cc2Cl)csc1Nc1ccc(NC(C)=O)cc1`, 2.75 µM; to `CC(=O)NC(c1cccs1)c1cc([N+](=O)[O-])c2cccnc2c1O` (stereo unspecified), 5.77 µM.
On to `Cc1c(C(=O)Nc2ccc(Oc3ccccc3)cc2)sc2nc3n(c(=O)c12)CCC3`, for which the IC50 is 5.11 µM.
With `COc1ccc(C)cc1NC(=O)NC1CC(=O)N(c2ccc3c(c2)OCCO3)C1` (stereo unspecified), the IC50 is 20.3 µM (inactive).
With `CC1CCC/C=C/C2CC(O)CC2C(O)/C=C/C(=O)O1` (stereo unspecified), the IC50 is 1.28 µM.
Then `O=C(O)CC1(CC(=O)Nc2cc(C(F)(F)F)cc(C(F)(F)F)c2)CCCCC1`, with 14.1 µM (inactive); and `Cc1cccc(OCCCC(=O)Nc2nc3ccccc3[nH]2)c1`, with > 39.8 µM (inactive).
For `Cc1ccccc1Cn1nnc(C(=O)Nc2cccc(C)c2C)c1N`, the IC50 is 18 µM (inactive).
As to `CN(CC(=O)Nc1ccccc1Cl)C(=O)c1cccc(S(=O)(=O)N2CCN(c3ccc(F)cc3)CC2)c1`, the IC50 is 4.59 µM.
As for `CC(=O)c1c(O)cc(O)c(C(C)=O)c1O`, the IC50 is 4.56 µM.
Take `O=C(NCc1cccnc1)/C(=C\c1ccc(-c2ccc(Cl)c(Cl)c2)o1)S(=O)(=O)c1ccccc1`: the IC50 is 7.96 µM.
As to `CCCCCc1c(-c2ccc(OC)c(OC)c2)ncn1CCc1ccccc1OC`, the IC50 was 7.74 µM.
As to `COc1cc2c(OC(C)=O)c3c(c(-c4ccc5c(c4)OCO5)c2cc1OC)C(=O)OC3`, the IC50 is 3.48 µM.
In the case of `O=C(COC(=O)c1cc([N+](=O)[O-])ccc1N1CCOCC1)Nc1ccc(Cl)cn1`, the IC50 was 31.8 µM (inactive).
Then `CCCCCCCCCCCCN1[C@@H](CC(=O)O)c2cc(F)ccc2S1(=O)=O`, with 8.51 µM.
For `COc1ccc(NC(=O)/C(Cl)=C(/Cl)S(=O)Cc2ccccc2)cn1` (stereo unspecified), the IC50 is 2.1 µM.
With `O=c1c(Br)ccc(Br)cc1Br`, the IC50 is 4.8 µM.
For `CN1C2CCC1/C(=C/c1ccccn1)C(=O)/C2=C\c1ccccn1`, the IC50 was 4.5 µM.
Consider `Cc1cc(NC(=O)CSc2nc3c(sc4ccccc43)c(=O)n2CCCN2CCOCC2)n[nH]1`, for which the IC50 was > 39.8 µM (inactive).
For the molecule `N#C/C(=N\Nc1ccc(Cl)c(Cl)c1)C(=O)C1CC1`, the IC50 was 1.04 µM.
